# From patent publication US8574831B2, “Mutational profiles in HIV-1 reverse transcriptase correlated with phenotypic drug resistance” (Virco N.V., priority 2000, dated 2013)
# Test system: HIV with mutations in the HIV protease sequence
# Test: Phenotypic fold resistance to protease inhibitors, protease mutations 84A/84L/84C/54M/54L/54V in a background (Examples 8-13)
# Format: cell-based, HIV-1
# How it was run: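 Recombinant-virus phenotyping: patient-derived PR/RT sequences amplified by PCR and recombined in CD4+ T cells into an HXB2 proviral clone deleted for those sequences. Chimeric viruses grown across drug concentrations; IC50 determined, and fold-resistance expressed as IC50 ratio versus wild-type susceptible laboratory HIV-1 tested in parallel.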
smiles,measurement,setting,value
"CC(C)c1nc(CN(C)C(=O)N[C@H](C(=O)N[C@@H](Cc2ccccc2)C[C@H](O)[C@H](Cc2ccccc2)NC(=O)OCc2cncs2)C(C)C)cs1 [Ritonavir, ritonavir]",mean fold increase in resistance,"Table 9 #1, protease genotype WT",0.6 fold
same,mean fold increase in resistance,"Table 9 #2, protease genotype 10I",1.15 fold
same,mean fold increase in resistance,"Table 9 #3, protease genotype 46I",0.8 fold
same,mean fold increase in resistance,"Table 9 #4, protease genotype 46I + 84V",4.6 fold
same,mean fold increase in resistance,"Table 9 #5, protease genotype 46I + 84A",51.8 fold
same,mean fold increase in resistance,"Table 9 #6, protease genotype 10I + 46I",1.5 fold
same,mean fold increase in resistance,"Table 9 #7, protease genotype 10I + 46I + 84V",11.9 fold
same,mean fold increase in resistance,"Table 9 #8, protease genotype 10I + 46I + 84A",77.3 fold
same,mean fold increase in resistance,"Table 9 #9, protease genotype 10L/I + 46I + 84A",114 fold
same,mean fold increase in resistance,"Table 9 #10, protease genotype 10I + 46I + 84A",44.5 fold
same,mean fold increase in resistance,"Table 9 #11, protease genotype 46I + 71V",1.4 fold
same,mean fold increase in resistance,"Table 9 #12, protease genotype 46I + 71V + 84V/I",1.8 fold
same,mean fold increase in resistance,"Table 9 #13, protease genotype 46I + 71V + 84A",102.2 fold
same,mean fold increase in resistance,"Table 9 #14, protease genotype 10F + 46I + 71V",4.1 fold
same,mean fold increase in resistance,"Table 9 #15, protease genotype 10I + 46I + 71V + 84V",45.6 fold
same,mean fold increase in resistance,"Table 9 #16, protease genotype 10I + 46I + 71V + 84A",114.9 fold
same,mean fold increase in resistance,"Table 9 #17, protease genotype 10V + 46I + 71T + 84A",91.9 fold
same,mean fold increase in resistance,"Table 9 #18, protease genotype 10I + 46I + 71V + 77I",1.65 fold
same,mean fold increase in resistance,"Table 9 #19, protease genotype 10I + 46I + 71V + 77I + 84V",3.1 fold
same,mean fold increase in resistance,"Table 9 #20, protease genotype 10I + 46I + 71V + 77I + 84A",121.3 fold
same,mean fold increase in resistance,"Table 9 #21, protease genotype 10I + 33L/I + 46I + 71V + 77V/I + 84A",38.6 fold
same,mean fold increase in resistance,"Table 10 #1, protease genotype 10I + 36I + 71V",1.2 fold
same,mean fold increase in resistance,"Table 10 #2, protease genotype 10I + 36I + 71I + 84V",1.5 fold
same,mean fold increase in resistance,"Table 10 #3, protease genotype 10I + 36I + 71I + 84L",0.8 fold
same,mean fold increase in resistance,"Table 11 #1, protease genotype WT",0.6 fold
same,mean fold increase in resistance,"Table 11 #2, protease genotype 84V",2.4 fold
same,mean fold increase in resistance,"Table 11 #3, protease genotype 84C",2.9 fold
same,mean fold increase in resistance,"Table 11 #4, protease genotype 10I",1.2 fold
same,mean fold increase in resistance,"Table 11 #5, protease genotype 10I + 84V",6.5 fold
same,mean fold increase in resistance,"Table 11 #6, protease genotype 10I + 84C",5.4 fold
same,mean fold increase in resistance,"Table 11 #7, protease genotype 77I",0.4 fold
same,mean fold increase in resistance,"Table 11 #8, protease genotype 77I + 84V",5.0 fold
same,mean fold increase in resistance,"Table 11 #9, protease genotype 77I + 84C",2.8 fold
same,mean fold increase in resistance,"Table 11 #10, protease genotype 77I + 84C",3.2 fold
same,mean fold increase in resistance,"Table 11 #11, protease genotype 10I + 24I + 36I + 46I + 71V + 84C",47 fold
same,Fold change in IC50,"Table 12, V19263, genotype 77I",0.4 fold
same,Fold change in IC50,"Table 12, V20160, genotype WT",0.6 fold
same,Fold change in IC50,"Table 12, V021667, genotype 10I",1.2 fold
same,Fold change in IC50,"Table 12, V030496, genotype 10I + 77I",0.5 fold
same,Fold change in IC50,"Table 12, V048869, genotype 10I + 54M + 77I + 90M",20.0 fold
same,Fold change in IC50,"Table 12, V048872, genotype 33F + 54M + 77I + 90M",8.7 fold
same,Fold change in IC50,"Table 12, V048873, genotype 33F + 54M + 77I + 90M",11.4 fold
same,Fold change in IC50,"Table 12, V048877, genotype 10I + 33F + 77I + 90M",20.5 fold
same,Fold change in IC50,"Table 12, V048878, genotype 10I + 33F + 54M + 71V + 77I + 90M",17.2 fold
same,Fold change in IC50,"Table 12, V048879, genotype 10I + 33F + 54M + 71V + 77I + 90M",74.0 fold
same,Fold change in IC50,"Table 12, V048880, genotype 10I + 33F + 77I + 90M",3.6 fold
same,Fold change in IC50,"Table 12, V052940, genotype 71V",0.4 fold
same,Fold change in IC50,"Table 12, V052942, genotype 10I + 71V",0.6 fold
same,Fold change in IC50,"Table 12, V052943, genotype 10I + 90M",1.8 fold
same,Fold change in IC50,"Table 12, V052944, genotype 10I + 90M",1.5 fold
same,Fold change in IC50,"Table 12, V052945, genotype 77I + 90M",1.9 fold
same,Fold change in IC50,"Table 12, V052946, genotype 71V + 90M",2.0 fold
same,Fold change in IC50,"Table 12, V052947, genotype 10I + 77I + 90M",6.9 fold
same,Fold change in IC50,"Table 12, V052948, genotype 10I + 71V + 90M",10.5 fold
same,Fold change in IC50,"Table 12, V052949, genotype 10I + 71V + 77I + 90M",2.3 fold
same,Fold change in IC50,"Table 12, V052950, genotype 33F",1.5 fold
same,Fold change in IC50,"Table 12, V052951, genotype 33F + 77I",0.3 fold
same,Fold change in IC50,"Table 12, V052953, genotype 10I + 33F + 77I",1.1 fold
same,Fold change in IC50,"Table 12, V052954, genotype 33F + 77I + 90M",2.2 fold
same,Fold change in IC50,"Table 12, V052955, genotype 33F + 71V + 90M",77.9 fold
same,Fold change in IC50,"Table 12, V052977, genotype 10I + 33F + 54M",35.5 fold
same,Fold change in IC50,"Table 12, V052978, genotype 10I + 33F + 54M + 71V + 90M",17.9 fold
same,Fold change in IC50,"Table 12, V052979, genotype 10I + 54M",20.0 fold
same,Fold change in IC50,"Table 12, V052980, genotype 10I + 54M + 90M",4.1 fold
same,Fold change in IC50,"Table 12, V052981, genotype 10I + 54M + 71V + 90M",9.4 fold
same,Fold change in IC50,"Table 12, V052982, genotype 10I + 54M + 71V + 77I + 90M",13.4 fold
same,Fold change in IC50,"Table 12, V053832, genotype 10I + 33F",2.9 fold
